Measurements: patent publication US10369123B2, “Perk activator for the treatment of neurodegenerative diseases” (DEUTSCHES ZENTRUM FÜR NEURODEGENERATIVE ERKRANKUNGEN E.V. …, priority 2014, dated 2019)
Entries after “also recorded” stand apart in the source; their conditions may differ.

What was measured:
tau = test: Western blot of tau conformation and phosphorylation, annonacin model; type: cell-based, human; conditions: annonacin 25 nM + PERK activator, 48 h
Method: Nunc™ Nunclon™ Delta 6-well (for protein and mRNA) or 48-well (for cell assays) plates (Thermo Fisher Scientific, Waltham, Mass., USA) were coated with 100 μg/ml poly-L-lysine (Sigma-Aldrich, St. Louis, Mo., USA) and 5 μg/ml fibronectin (Sigma-Aldrich). LUHMES (Lund Human Mesencephalic) cells, derived from human embryonic ventral mesencephalic cells by conditional immortalization (Tet-off v-myc over-expression) were seeded out in a concentration of 130,000 cells/cm^2 to achieve a confluence of 50%. They were then differentiated for 8 days in a medium of DMEM/F12 (Sigma-Aldrich), 1 μg/ml tetracycline, […] and 490 μg/ml dbcAMP into post-mitotic neurons with a dopaminergic phenotype (Lotharius et al. 2005).
For all experiments with annonacin, the medium was replaced during the intoxication period with new medium containing glucose levels reduced to 250 μM, i.e. the physiological concentration in the human brain.
Protein was extracted by scraping the cells from the culture plate with Mammalian Protein Extraction Reagent (M-PER, Thermo Fisher Scientific) and 1× cOmplete Protease Inhibitor Cocktail Tablets (Hoffmann-La Roche, Basel, Switzerland) and 1× PhosSTOP Phosphatase Inhibitor Cocktail Tablets (Hoffmann-La Roche). For pNRF2 blots, cells were extracted with 2% SDS tris-buffer instead of M-PER in order to obtain whole cell extracts and not to lose the nuclear fraction. The protein solution was frozen at −80° C., immediately after retrieval, for a minimum of two hours. The solution was then thawed on ice, vortexed, centrifuged at 5000 g for 15 min at 4° C. and the supernatant retrieved. Protein concentrations were determined using the BCA kit (Thermo Fisher Scientific) by heating the samples at 60° C. for 30 min and measuring the absorption on the NanoDrop 2000c Spectrophotometer (Thermo Fisher Scientific).
20 μg of protein (unless indicated otherwise) were adjusted to equal concentrations between samples by dilution with M-PER and subsequently heated at 95° C. for 5 minutes with Roti®-Load 1 (Carl Roth). SDS-PAGE was performed using Any kD™ Mini-PROTEAN® TGX™ Gels (BioRad, Berkeley, Calif., USA) in a tris-glycine running buffer. The protein was blotted onto PVDF membrane (BioRad) at 70 V for 65 minutes on ice. The membrane was blocked with 1× Roti®-Block solution (Carl Roth) for 1 h and then incubated at 4° C. overnight under gentle shaking with the primary antibody (see Table 5) in TBS with 5% BSA (Cell Signaling Technology) and 0.05% TWEEN (Sigma-Aldrich).
The membranes were then washed and incubated with the species specific HRP-bound secondary antibody (Vector Laboratories, Burlingame, Calif., USA) at 1:2500 in 1× Roti®-Block solution for 2 h, followed by further washing and exposure to Clarity Western ECL Substrate (BioRad) or, in the case of MC1 and 4R-tau, to Amersham™ ECL™ Prime (GE Healthcare). Chemiluminescence was detected with the Gel Doc™ XR System (BioRad) and analyzed with Image Lab™ software (BioRad), followed by graphical and statistical analysis with Prism 6 (GraphPad Software).

pathological tau species = test: Immunoblot of tau species in P301S mouse brains; type: in vivo; conditions: P301S mice, 2 mg/kg i.p. once daily for 6 weeks from 17 weeks of age, vs saline
Method: (§1) For the efficacy trial in the late disease stage (Xu et al. 2014), P301S mice and wild type littermates received once daily i.p. injections of 2 mg/kg CCT020312 or saline from 17 to 22 weeks of age (n=12 for CCT020312 treated P301S mice, n=9 for other groups); they were analyzed with the Rotarod test in the 23rd week of age.
(§2) Twelve hours after the last injection, animals were anesthetized by i.p. injections of pentobarbital at (100 mg/kg) and transcardially perfused with 0.1 M phosphate buffer for 2 min, then fixed for 10 min with 4% paraformaldehyde. Post-fixation of the brain was done in 4% paraformaldehyde at 4° C. for 48 h. Their brains were prepared for histological analysis, as described (Xu et al. 2014). For the immunoblot analysis in P301S mice and wild type mice were sacrificed by cervical dislocation, their brains were frozen on dry ice and stored at −80° C. for Western blot analysis.
Frontal cortex tissue was dissected from the fresh-frozen sample on dry ice and suspended in 750 μl of T-PER Tissue Protein Extraction Reagent (Thermo Fisher Scientific) and 1× cOmplete Protease Inhibitor Cocktail Tablets (Hoffmann-La Roche) and 1× PhosSTOP Phosphatase Inhibitor Cocktail Tablets (Hoffmann-La Roche). The tissue piece was initially ground with a pestle inside a microcentrifuge tube on ice and then homogenized by sonification with Branson Sonifier 450 Analog (Branson, now Thermo Fisher Scientific) with 10×500 ms bursts at intensity level 3 on ice. […] Protein concentrations were determined using the BCA kit (Thermo Fisher Scientific) by heating the samples at 60° C. for 30 minutes and measuring the absorption on the NanoDrop 2000c spectrophotometer (Thermo Fisher Scientific).
20 μg of protein (200 μg for pPERK blots) were adjusted to equal concentrations between samples by dilution with M-PER and subsequently heated at 95° C. for 5 minutes with Roti®-Load 1 (Carl Roth). […] Chemiluminescence was detected with the Gel Doc™ XR System (BioRad) and analyzed with the Image Lab™ software (BioRad), followed by graphical and statistical analysis with Prism 6 (GraphPad Software).

[1] = test system: paired helical filament tau (AT180); test: Immunohistochemistry of P301S mouse hippocampus; type: in vivo; conditions: P301S mice, 2 mg/kg i.p. once daily for 6 weeks from 17 weeks of age, vs saline
Method: as §1, §2
Fixed brains (n=6 per group) were cut into 30 μm-thickness of coronal sections with a cryomicrotome (CM3050 S, Leica). […]

SMILES: CCN(CC)CCC(=O)N1N=C(c2c(-c3ccccc3)c3cc(Br)ccc3[nH]c2=O)CC1c1ccc(Br)cc1 (centres unmarked) [CCT020312, 6-bromo-3-[5-(4-bromo-phenyl)-1-(3-diethylamino-propionyl)-4,5-dihydro-1H-pyrazol-3-yl]-4-phenyl-1H-quinolin-2-one]
- total tau protein (HT7) (tau): not altered
- AD2 (p-Ser-396 and 404) tau phosphorylation (tau; vs annonacin alone): significantly reduced
- CP13 (p-Ser-202) tau phosphorylation (tau; vs annonacin alone): significantly reduced
- MC1 pathological tau conformation (tau; vs annonacin alone): reversed; also recorded: averted
- AT180-immunoreactivity (paired helical filament tau), immunoblot (pathological tau species): decreased
- CP13-immunoreactivity (S202-phosphorylated tau), immunoblot (pathological tau species): decreased
- MC1-immunoreactivity (conformationally changed tau), immunoblot (pathological tau species): decreased
- AT180-immunoreactivity in the hippocampal region, histology [1]: decreased
